In patent US4956489A (Bioeurope, priority 1987, dated 1990):
Read-outs that look alike come from different tables or passages of the source.

Assays:
[1] = solubility in ethyl acetate; format: physicochemical; conditions: extraction of the aqueous phase with ethyl acetate
Description: (§1) The amounts of residual solvent present in the final aqueous phase are removed by extraction with 2 liters of ethyl acetate. […] The aqueous phase is then concentrated by evaporation under vacuo, after which it is lyophilized. The structure of the product was verified by elemental analysis and proton NMR spectroscopy.

[2] = solubility in water; format: physicochemical; conditions: in water at 25° C. and pH 6
Description: as §1
(b) The lactyl-L-tyrosine ethyl ester is purified and deesterified according to the procedure described in Example 1 in relation to L-malyl-L-tyrosine ethyl ester, to obtain L-lactyl-L-tyrosine monosodium salt.

[3] = read-out: solubility in water, equivalent molar

Row | Compound | solubility in ethyl acetate [1] | solubility ([2]; read-out: solubility in water) [mg/mL] | solubility [2, 3] [mM]
1 | O=C([O-])C[C@H](O)C(=O)N[C@@H](Cc1ccc(O)cc1)C(=O)[O-].[Na+].[Na+] [L-malyl-L-tyrosine disodium salt] | not soluble in ethyl acetate | 820 | 2400
2 | C[C@H](O)C(=O)N[C@@H](Cc1ccc(O)cc1)C(=O)[O-].[Na+] |  | ≥ 330 | ≥ 1200
